# Measurements: patent US8012963B2, “3,4-dihydro-2H-benzo[1,4]oxazine and thiazine derivatives as CETP inhibitors” (Janssen Pharmaceutica N.V., priority 2006, dated 2011)
# Target: T1, CETP (Homo sapiens, UniProt P11597)
# T1 construct: from tissue; host or cells: human plasma from normal volunteers
# T1 sequence (P11597 18-493): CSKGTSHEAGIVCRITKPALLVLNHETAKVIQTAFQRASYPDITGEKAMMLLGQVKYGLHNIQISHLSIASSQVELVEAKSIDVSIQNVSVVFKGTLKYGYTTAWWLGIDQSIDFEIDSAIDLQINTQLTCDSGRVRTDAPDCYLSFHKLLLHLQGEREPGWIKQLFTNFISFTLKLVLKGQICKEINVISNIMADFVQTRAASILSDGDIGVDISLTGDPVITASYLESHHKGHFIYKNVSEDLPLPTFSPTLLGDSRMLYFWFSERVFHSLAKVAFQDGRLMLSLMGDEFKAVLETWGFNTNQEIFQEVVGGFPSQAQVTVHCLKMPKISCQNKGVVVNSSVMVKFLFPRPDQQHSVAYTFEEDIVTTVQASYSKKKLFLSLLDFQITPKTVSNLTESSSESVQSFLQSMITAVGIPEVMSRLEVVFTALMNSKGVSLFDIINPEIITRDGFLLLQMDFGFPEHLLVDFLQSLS
# Experiment: CETP in vitro assay ([3H]CE-HDL transfer, Amersham kit TRKQ7005; modified protocol in human plasma)
# Assay type: biochemical
# Settings: 1 μM compound; multiple values = multiple measurements
# Experimental: The CETP inhibitory activity of the compounds was determined using a commercially available kit from Amersham Biosciences (Catalog #TRKQ7005).
# For the measurement of inhibitory activity in human plasma, a modified protocol (Connolly, D. T. et al., Biochemistry, 39 13870-13879, 2000) was used. Briefly, 80 μl of human plasma (obtained from normal volunteers), approximately 25 μg/ml (200) of [^3H]CE-HDL (Amersham Biosciences from kit TRKQ7005) and 1 μl of compound dissolved in DMSO was incubated for at least 4 hrs at 37° C. and non-specific transfer was determined by incubating a corresponding plate at 4° C. (blank). After the incubation period, 100 of a solution of 1% Dextralip 50/0.5M MgCl2, pH 7.4 was added, vortexed and incubated at room temperature for 10 min. The plate was then centrifuged for 30 min at 10° C. at 3000 rpm in a Sorvall RT6000B centrifuge. Fifty microliters of the supernatant was transferred to a Picoplate (Packard) containing 100 μl of Microscint 40 (Perkin Elmer) and mixed for 30 min using a plate mixer. The radioactivity was counted using a TopCount (Perkin Elmer) and the % control was determined in the samples using the following formula: % transfer relative to vehicle controls (% control)=[cpm blank-cpm test]/cpm blank/cpm control]×100. IC50s were calculated from plots of the % control versus compound concentration.
# A variety of example compounds have been made and tested, with a range of in vitro results. Below, in Table 2, are representative compounds and the corresponding data; in some cases, where multiple IC50's are shown, multiple measurements were taken. Naturally, different compounds in Formula (I), (Ia), (Ib) and (Ic) may have not activities identical to any one compound below.
row,Structure (SMILES),inhibition at 1 µM [%]
1,"CN(CCN1c2cccc(-c3cccc(OC(F)(F)F)c3)c2OCC1c1cccc(OC(F)(F)C(F)F)c1)S(C)(=O)=O (centres unmarked) [Compound 44, N-Methyl-N-{2-[3-[3-(1,1,2,2-tetrafluoro-ethoxy)-phenyl]-8-(3-trifluoromethoxy-phenyl)-2,3-dihydro-benzo[1,4]oxazin-4-yl]-ethyl}-methanesulfonamide]",0
2,"CC1(C)OC[C@H](CN2c3cccc(-c4cccc(OC(F)(F)F)c4)c3OC[C@@H]2c2cccc(OC(F)(F)C(F)F)c2)O1 [Compound 45, 2H-1,4-Benzoxazine, 4-[[(4S)-2,2-dimethyl-1,3-dioxolan-4-yl]methyl]-3,4-dihydro-3-[3-(1,1,2,2-tetrafluoroethoxy)phenyl]-8-[3-(trifluoromethoxy)phenyl]-, (3S)—]",25
3,"CC1(C)OC[C@H](CN2c3cccc(-c4cccc(OC(F)(F)F)c4)c3OC[C@H]2c2cccc(OC(F)(F)C(F)F)c2)O1 [Compound 46, 2H-1,4-Benzoxazine, 4-[[(4S)-2,2-dimethyl-1,3-dioxolan-4-yl]methyl]-3,4-dihydro-3-[3-(1,1,2,2-tetrafluoroethoxy)phenyl]-8-[3-(trifluoromethoxy)phenyl]-, (3R)—]",20
4,"OC[C@@H](O)CN1c2cccc(-c3cccc(OC(F)(F)F)c3)c2OC[C@@H]1c1cccc(OC(F)(F)C(F)F)c1 [Compound 47, 1,2-Propanediol, 3-[(3S)-2,3-dihydro-3-[3-(1,1,2,2-tetrafluoroethoxy)phenyl]-8-[3-(trifluoromethoxy)phenyl]-4H-1,4-benzoxazin-4-yl]-, (2S)—]",27
5,"OC[C@@H](O)CN1c2cccc(-c3cccc(OC(F)(F)F)c3)c2OC[C@H]1c1cccc(OC(F)(F)C(F)F)c1 [Compound 48, 1,2-Propanediol, 3-[(3R)-2,3-dihydro-3-[3-(1,1,2,2-tetrafluoroethoxy)phenyl]-8-[3-(trifluoromethoxy)phenyl]-4H-1,4-benzoxazin-4-yl]-, (2S)—]",13
6,"CC(C)(O)CN1c2cccc(-c3cccc(OC(F)(F)F)c3)c2OCC1c1cccc(OC(F)(F)C(F)F)c1 (centres unmarked) [Compound 49, 2-Methyl-1-[3-[3-(1,1,2,2-tetrafluoro-ethoxy)-phenyl]-8-(3-trifluoromethoxy-phenyl)-2,3-dihydro-benzo[1,4]oxazin-4-yl]-propan-2-ol]",34
7,COCCCC1COc2c(-c3cccc(OC(F)(F)F)c3)cccc2N1CC(O)C(F)(F)F (centres unmarked) [Compound 55],0

# Same assay, conditions: 1 μM compound; multiple values = multiple measurements; 1 µM
row,Structure (SMILES),% Inhibition @ 1 μM [%]
1,"CC(C)(O)CN1c2cccc(-c3cccc(OC(F)(F)F)c3)c2OCC1c1cccc(OC(F)(F)C(F)F)c1 (centres unmarked) [Compound 49, 2-Methyl-1-[3-[3-(1,1,2,2-tetrafluoro-ethoxy)-phenyl]-8-(3-trifluoromethoxy-phenyl)-2,3-dihydro-benzo[1,4]oxazin-4-yl]-propan-2-ol]",24
2,"C=CCC1COc2c(-c3cccc(OC(F)(F)F)c3)cccc2N1CC(O)C(F)(F)F (centres unmarked) [Compound 50, 3-[3-Allyl-8-(3-trifluoromethoxy-phenyl)-2,3-dihydro-benzo[1,4]oxazin-4-yl]-1,1,1-trifluoro-propan-2-ol]",10
3,"C=CCC1COc2c(-c3cccc(OC(F)(F)F)c3)cccc2N1CC(O)C(F)(F)F (centres unmarked) [Compound 51, 3-[3-Allyl-8-(3-trifluoromethoxy-phenyl)-2,3-dihydro-benzo[1,4]oxazin-4-yl]-1,1,1-trifluoro-propan-2-ol]",0
4,"OCCCC1COc2c(-c3cccc(OC(F)(F)F)c3)cccc2N1CC(O)C(F)(F)F (centres unmarked) [Compound 52, 3-[4-(3,3,3-Trifluoro-2-hydroxy-propyl)-8-(3-trifluoromethoxy-phenyl)-3,4-dihydro-2H-benzo[1,4]oxazin-3-yl]-propan-1-ol]",13
5,"OCCCC1COc2c(-c3cccc(OC(F)(F)F)c3)cccc2N1CC(O)C(F)(F)F (centres unmarked) [Compound 54, 3-[4-(3,3,3-Trifluoro-2-hydroxy-propyl)-8-(3-trifluoromethoxy-phenyl)-3,4-dihydro-2H-benzo[1,4]oxazin-3-yl]-propan-1-ol]",1
6,"CC(C)(C)C(=O)CC1COc2c(-c3cccc(OC(F)(F)F)c3)cccc2N1CC(O)C(F)(F)F (centres unmarked) [Compound 56, 3,3-Dimethyl-1-[4-(3,3,3-trifluoro-2-hydroxy-propyl)-8-(3-trifluoromethoxy-phenyl)-3,4-dihydro-2H-benzo[1,4]oxazin-3-yl]-butan-2-one]",9

# Same assay, conditions: multiple values = multiple measurements
row,Structure (SMILES),IC50 [nM]
1,"CC(C)(O)CN1c2cccc(-c3cccc(OC(F)(F)F)c3)c2OCC1c1cccc(OC(F)(F)C(F)F)c1 (centres unmarked) [Compound 49, 2-Methyl-1-[3-[3-(1,1,2,2-tetrafluoro-ethoxy)-phenyl]-8-(3-trifluoromethoxy-phenyl)-2,3-dihydro-benzo[1,4]oxazin-4-yl]-propan-2-ol]",560
